Reference: PubChem BioAssay AID2060502 (Molecular Pharmacology Branch, DTP, NCI, 2025)
Where “and” joins values, the source holds several entries; their conditions need not be identical. Equal entries are not always repeated.

Tested on: 885724-159-R-J1-PDC complex spheroid viability
Test: Anticancer human tumor 885724-159-R-J1-PDC patient-derived pancreatic adenocarcinoma cell line growth inhibition [GQUAD]
Conditions: for viability, T/C: stronger effect = lower value; for IC50: curve of compound
Source text: DNA G-quadruplex Stabilizer Agents in Combinations in Complex Spheroids
A high-throughput screen of multi-cell type tumor spheroids was designed to identify active combinations of DNA G-quadruplex stabilizer agents and targeted small molecules. Complex spheroids include a stromal component modeled by human endothelial cells (HUVEC) and fibroblasts modeled by human mesenchymal stem cells (MSCs). The concentration ranges selected for each drug and investigational agent were based upon clinically achievable concentrations if the clinical Cmax of the agent was known.
Compounds. The drugs and investigational agents: pidnarulex (CX-5461; NSC782164), APTO-253 (NSC789042), BRACO-19 (NSC847499), peposertib (NSC802822), ceralasertib (NSC780249), elimusertib (NSC800525), camonsertib (NSC841442), AZD-1390 (NSC803789), olaparib (NSC753686), talazoparib (NSC767125), ART-558 (NSC835418), sotorasib (NSC818433), MRTX-1133 (NSC836407), SN-38 (NSC673596), topotecan (NSC609699), etoposide (NSC141540), doxorubicin (NSC123127), gemcitabine (NSC613327), 5-fluorouracil (NSC19893), paclitaxel (NSC125973), vemurafenib (NSC761431), panobinostat (NSC761190), R-306465 (JNJ-16241199; NSC773264), adavosertib (NSC754352), TP-3654 (NSC805149), carboplatin (NSC241240), KSQ-4279 (NSC840948), and staurosporine (NSC755774) were obtained from the National Cancer Institute (NCI) Developmental Therapeutics Program Chemical Repository (34). The FDA-approved anticancer drug set is available from the NCI Developmental Therapeutics Program. […] The stock solutions were prepared in dimethyl sulfoxide (DMSO, Sigma-Aldrich, St. Louis, MO, cat. D2650) at 800-fold the tested concentration and stored at -70 degrees C prior to their use. All drugs and investigational agents were tested over a range starting from a high concentration at or near the clinical Cmax and decreasing in half-log increments. If the clinical Cmax for an agent had not been determined, the highest concentration tested was 10 microM.
2.3 Cell Culture. All cells were maintained in an incubator at 37 degrees C and 5% CO2 with 95% humidity. The PDC lines were cultured according to standard operating procedures established by the NCI PDMR. All PDCs were thawed and cultured in Matrigel-coated flasks prepared with a working solution of 1X Ham's F-12 nutrient mix, without supplementation (Invitrogen, cat. 11765054), 100 U/mL penicillin-streptomycin (Invitrogen, cat. 15140122), and 2.5% Matrigel (Corning Inc., cat. 354248) for the first three passages. The 857933-349-R-J2-PDC line was cultured in 6C/Colon 1B media, which includes advanced DMEM/F-12 (Thermo Fisher Scientific, cat. 12634028), 10 mM HEPES (Thermo Fisher Scientific, cat. 15630080), 1X GlutaMAX supplement (Thermo Fisher Scientific, cat. 35050061), 0.1 mg/mL primocin (InvivoGen, cat. ant-pm-2), 10% defined fetal bovine serum, heat inactivated (HyClone Laboratories Inc., cat. SH30070.03HI), 50% L-WRN conditioned media (ATCC, cat. CRL-3276), 1.25 mM N-Acetyl-L-cysteine (Sigma-Aldrich, cat. A9165), 10 mM nicotinamide (Sigma-Aldrich, cat. N0636), 1X B-27 supplement (Thermo Fisher Scientific, cat. 17504044), 1X N-2 supplement (Thermo Fisher Scientific, cat. 17502048), 10 microM Y-27632 dihydrochloride (Tocris Bioscience, cat. 1254), and 50 ng/mL human EGF recombinant protein (Thermo Fisher Scientific, cat. PHG0311). The 485176-168-R4-J1-PDC line was cultured in Panc media, which includes all 6C/Colon 1B media components plus 100 ng/mL human FGF-10 (Thermo Fisher Scientific, cat. 100-26), 500 nM SB-431542 (Selleckchem, cat. S1067), and gastrin (Tocris, cat. 3006).
[…]
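Further: spheroids exposed to agents for seven days before readout.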
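Wherever viability, T/C is given: percent of vehicle control viability where 100% = DMSO wells.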

Row | IC50 | SMILES | viability, T/C (compound 0.000999 µM) | viability, T/C (compound 0.00316 µM) | viability, T/C (compound 0.00999 µM) | viability, T/C (compound 0.0316 µM) | viability, T/C (compound 0.0999 µM) | viability, T/C (compound 0.316 µM) | viability, T/C (compound 0.1 µM) | viability, T/C (compound 1 µM) | viability, T/C (compound 3.16 µM) | viability, T/C (compound 10 µM)
1 | > 316 nM | CC[C@@]1(O)C(=O)OCc2c1cc1n(c2=O)Cc2cc3c(CN(C)C)c(O)ccc3nc2-1 | 86.3% and 93.6% and 89.6% | 104% and 87.4% and 88.3% | 99.2% and 92.9% and 93% | 80.8% and 92.5% and 101% | 85.6% and 74.7% and 90.8% | 74.5% and 64.7% and 71.3% | – | – | – | –
2 | 2350 nM and 2390 nM and 2140 nM | COc1cccc2c1C(=O)c1c(O)c3c(c(O)c1C2=O)CC(O)(C(=O)CO)CC3OC1CC(N)C(O)C(C)O1 (stereo unspecified) | – | – | – | 92.3% and 103% and 104% | – | 80.3% and 79.5% and 78.9% | 92.3% and 81.3% and 102% | 84.3% and 81.4% and 81.6% | 38.4% and 40.1% and 34.5% | 4.02% and 1.94% and 3.83%
3 | 110 nM and 64.3 nM and 101 nM | CCc1c2c(nc3ccc(O)cc13)-c1cc3c(c(=O)n1C2)COC(=O)[C@]3(O)CC | 85.3% and 91.4% and 93.3% | 87.5% and 81.8% and 85.2% | 63.2% and 62.8% and 77.4% | 66.7% and 67.3% and 62.1% | 60.3% and 45.8% and 59% | 17.2% and 8.7% and 16.4% | – | – | – | –
